# Patent US7371780B2, “Use of calphostin C to treat drug-resistant tumor cells” (priority 2003, dated 2008)
# What was measured:
# [1] = system: Chinese hamster ovary (CHO) cells; experiment: Death and cytoplasmic vacuolization, CHO; assay type: cell-based; details: data not shown
# MCF-7TAX cells [2] = experiment: Flow cytometric sub-G1 DNA content, MCF-7TAX; assay type: cell-based, human; details: 100 nM calphostin C, 2 h light
# Procedure: For flow cytometric analysis, cells at about 50% to 60% confluence were released from their flasks by trypsin treatment and washed with PBS. After centrifugation at 1000 rpm for 5 min, cells were then fixed by resuspension in 75% ethanol for 2 hours, collected by centrifugation, and resuspended in PI staining solution (see above) for 1 h. For each sample, approximately 2×10^4 cells were analyzed using a Beckman Coulter Epics® Elite flow cytometer. Fluorescence intensity upon stimulation with an argon-ion laser at 488 nm was measured using the PMT4 channel (625DL filter) and plotted against cell number. The percentage of cells with a sub-G1 DNA content was determined by the flow cytometer, adjusting the gates such that only cells with a fluorescence lower than the peak for untreated cells in G1 are counted (see FIG. 4).
# MCF-7TAX cells [3] = experiment: Drug uptake, MCF-7TAX; assay type: cell-based, human
# Procedure: FIG. 5 illustrates the effect of calphostin C (Cal-C) on drug uptake in MCF-7 (square symbols), MCF-7TAX (diamond symbols) and MCF-7DOX (triangular symbols) cells. After one-day growth, the cells were left untreated (closed symbols) or treated with 100 nM calphostin C for 2 h with light activation (open symbols). Cells were then washed and the medium replaced with medium containing 2 μM of doxorubicin (A) or [^3H]-paclitaxel (B). The cells were then trypsinized and drug accumulation measured by flow cytometry (A) or liquid scintillation counting (B) at indicated time points. The figures are representative of three independent experiments.
structure (smiles),measurement,setting,value
COc1c(C[C@@H](C)OC(=O)Oc2ccc(O)cc2)c2c3c(C[C@@H](C)OC(=O)c4ccccc4)c(OC)c(=O)c4c(O)cc(OC)c(c5c(OC)cc(O)c(c1=O)c52)c43 [calphostin C],induction of death and cytoplasmic vacuolization,[1],induce both death and cytoplasmic vacuolization
same,time of strong increase in percentage of sub-G1 cells after treatment,MCF-7TAX cells [2],8 h
same,effect on doxorubicin uptake,"MCF-7TAX cells [3]; 100 nM calphostin C 2 h with light, then 2 μM doxorubicin",little ability to re-establish doxorubicin uptake
same,effect on paclitaxel uptake,"MCF-7TAX cells [3]; 100 nM calphostin C, early time points, back to control by 18 hours",slightly restored
